We go through 3 molecules from EP2402322A1, “1,2,3,4-tetrahydroisoquinoline derivative and its use as orexin receptor antagonist” (Actelion Pharmaceuticals Ltd., priority 2010, dated 2012).

Where two headings read alike, the source gives them in different places.

The target in series [1] is T1, human orexin-1 receptor (Homo sapiens, UniProt O43613).
T1 construct: expressed in transfected cells; host or cells: CHO cells (G418 selection)
T1 sequence (O43613 1-425): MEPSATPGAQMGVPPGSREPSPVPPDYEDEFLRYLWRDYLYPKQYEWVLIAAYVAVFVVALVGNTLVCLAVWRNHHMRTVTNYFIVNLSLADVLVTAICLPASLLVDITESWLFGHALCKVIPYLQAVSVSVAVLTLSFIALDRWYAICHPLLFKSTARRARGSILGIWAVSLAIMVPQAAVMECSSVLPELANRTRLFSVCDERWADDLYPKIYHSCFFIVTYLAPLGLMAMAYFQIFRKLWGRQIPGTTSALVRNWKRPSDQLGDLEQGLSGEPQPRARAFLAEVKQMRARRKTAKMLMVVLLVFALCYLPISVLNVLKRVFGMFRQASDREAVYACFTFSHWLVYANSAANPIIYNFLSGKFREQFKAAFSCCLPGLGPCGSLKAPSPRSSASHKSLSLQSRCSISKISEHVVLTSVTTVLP
As to the kind of experiment: Intracellular calcium measurements (FLIPR), CHO cells, 3 nM orexin-A as agonist. Format: cell-based. As for the experimental part:
Chinese hamster ovary (CHO) cells expressing the human orexin-1 receptor and the human orexin-2 receptor, respectively, are grown in culture medium (Ham F-12 with L-Glutamine) containing 300 µg/ml G418, 100 U/ml penicillin, 100 µg/ml streptomycin and 10 % heat inactivated fetal calf serum (FCS). The cells are seeded at 20'000 cells / well into 384-well black clear bottom sterile plates (Greiner). The seeded plates are incubated overnight at 37°C in 5% CO2.
Human orexin-A as an agonist is prepared as 1 mM stock solution in MeOH: water (1:1), diluted in HBSS containing 0.1 % bovine serum albumin (BSA), NaHCO3: 0.375g/l and 20 mM HEPES for use in the assay at a final concentration of 3 nM. […]
Within the Fluorescent Imaging Plate Reader (FLIPR Tetra, Molecular Devices), antagonists are added to the plate in a volume of 10 µl/well, incubated for 10 min and finally 10 µl/well of agonist is added. Fluorescence is measured for each well at 1 second intervals, and the height of each fluorescence peak is compared to the height of the fluorescence peak induced by 3 nM orexin-A with vehicle in place of antagonist. […] The calculated IC50 values may fluctuate depending on the daily cellular assay performance. […]

In series [2] the test system is Wistar rats. As to the kind of experiment: EEG, EMG and behavioural indices of alertness recorded by radiotelemetry (absence of sleep-promoting effects). It counts as in vivo. The procedure: EEG and EMG signals were measured by telemetry using TL11 M2-F20-EET miniature radiotelemetric implants (Data Science Int.) with two pairs of differential leads.
Surgical implantation was performed under general anesthesia with Ketamin/Xylazln, for cranial placement of one differential pair of EEG electrodes and one pair of EMG leads inserted in either side of the muscles of the neck. After surgery, rats recovered in a thermoregulated chamber and received analgesic treatment with subcutaneous buprenorphine twice a day for 2 d. They were then housed individually and allowed to recover for a minimum of 2 weeks. Thereafter, rats—in their home cage—were placed in a ventilate sound-attenuating box, on a 12-h light / 12-h dark cycle, for acclimatization before continuous EEG / EMG recordings started. The telemetric technology that we used in this study allows accurate and stress-free acquisition of biosignals in rats placed In their familiar home cage environment, with no recording leads restricting their movements. Variables analyzed included four different stages of vigilance and sleep, spontaneous activity in the home cage and body temperature. Sleep and wake stages were evaluated using a rodent scoring software (Somnologica Science) directly processing electrical biosignals on 10 s contiguous epochs. The scoring is based on frequency estimation for EEG and amplitude discrimination for EMG and locomotor activity. Using these measurements, the software determines the probability that all components within each epoch best represent active waking (AW), quiet waking (QW), non-REM-sleep (NREM) or REM-sleep (REM). The percentage of total time spent in AW, QW. NREM- and REM-sleep was calculated per 12 h light or dark period. The latency to the onset of the first significant NREM- and REM-sleep episodes and the frequency and duration of those episodes were also calculated. […] All variables were subsequently recorded for 12 h following administration of the orexin receptor antagonist.

The test system of series [3] is Male Sprague Dawley rats. In words: Acquisition of morphine induced locomotor sensitization. Format: in vivo. The conditions noted are these: 300 mg/kg p.o. 2 h before each morphine injection (10 mg/kg i.p.), 4 pairings; Figure 1. The text has this:
Method: Although, in essence, locomotor sensitization is a non-associative learning process, the context plays a major role in the development and expression of locomotor sensitization. Thus, drug injections are usually administered intermittently in a context different from the home cage, such as an open field, where locomotor activity can be quantitatively measured. Drugs are regularly administered in high concentrations and via routes of administration with a fast onset of action (such as intraperitoneal or intravenous injections). In order to induce robust locomotor sensitization drugs are administered typically once a day over a period of several days. Once established in such a way, locomotor sensitization can be observed in response to a new drug challenge over a period of up to several months.
Method: Male Sprague Dawley rats are injected with morphine (10 mg/kg i.p.) and placed immediately afterwards in an open field (45 x 40 x 33 cm) for 45 min. Total distance moved (TDM) of the animal is recorded automatically via video-tracking. This procedure is repeated 4 times, every 2nd day, so that each animal received a total number of 4 pairings of morphine injection within the context of the open field.

A short description of series [4]: Measurement of brain and systemic concentration after oral administration. As to conditions: rat; for concentration at 3 h: 3 h after oral administration (100 mg/kg), n = 3, male wistar rats, 100% PEG 400; for capacity to cross the blood-brain barrier: summary statement. It counts as in vivo, male wistar rats. The procedure:
The compounds are formulated in 100% PEG 400. Samples are collected in the same animal at the same time point (+/- 5 min). Blood is sampled from the vena cava caudalis into containers with EDTA as anticoagulant and centrifuged to yield plasma. Brain is sampled after cardiac perfusion of 10 mL NaCl 0.9% and homogenized into one volume of cold phosphate buffer (pH 7.4). All samples are extracted with MeOH and analyzed by LC-MS/MS. Concentrations are determined with the help of calibration curves.

In series [5] the test system is F344 rats. In words: Fear-potentiated startle paradigm. Format: in vivo. As to conditions: 300 mg/kg oral gavage, 1 h before test, n=16 F344 rats; Figure 2. An excerpt:
The fear-potentiated startle (FPS) paradigm is a model of conditioned fear in rodents that relates to emotional states of fear and anxiety. Rats can be trained to associate an initially neutral, soon-to-be conditioned stimulus (CS: e.g. light) with an aversive, unconditioned stimulus (US; e.g. foot shook). When tested after training for their startle reflex response to brief (ms) noise bursts in the absence vs. the presence of the CS (e.g. light), rats generally show greater startle amplitudes during the presence of the CS which now serves as a predictor of shock. […] This model translates to humans where a similar training procedure can be implemented and a FPS response can also be evoked in the presence of a shock predicting cue. […] The current paradigm represents a translational animal model that is predictive of anxiolytic activity of a drug.
Method: Sixteen adult male F344 rats were trained for two consecutive days (conditioning phase) to associate a light-stimulus with a foot shock (0.4 mA). On the following day they were tested for their response to startle eliciting noise stimuli which were delivered randomly under light (cue) or dark (no cue) conditions. […] Average startle responses to noise stimuli of 90, 100 and 110dB intensity under light and dark conditions during the test day were measured and electrically transduced into a millivolt signal. […]

Series [6] concerns rat. The conditions noted are these: cited from earlier work.
For series [7] the following is noted: rat; cited from earlier work.
Series [8] has as its system rat. The conditions noted are these: animal model of conditioned fear; cited from earlier work.
Series [9] has as its target T2, human orexin-2 receptor (Homo sapiens, UniProt O43614).
T2 construct: expressed in transfected cells; host or cells: CHO cells (G418 selection)
T2 sequence (O43614 1-444): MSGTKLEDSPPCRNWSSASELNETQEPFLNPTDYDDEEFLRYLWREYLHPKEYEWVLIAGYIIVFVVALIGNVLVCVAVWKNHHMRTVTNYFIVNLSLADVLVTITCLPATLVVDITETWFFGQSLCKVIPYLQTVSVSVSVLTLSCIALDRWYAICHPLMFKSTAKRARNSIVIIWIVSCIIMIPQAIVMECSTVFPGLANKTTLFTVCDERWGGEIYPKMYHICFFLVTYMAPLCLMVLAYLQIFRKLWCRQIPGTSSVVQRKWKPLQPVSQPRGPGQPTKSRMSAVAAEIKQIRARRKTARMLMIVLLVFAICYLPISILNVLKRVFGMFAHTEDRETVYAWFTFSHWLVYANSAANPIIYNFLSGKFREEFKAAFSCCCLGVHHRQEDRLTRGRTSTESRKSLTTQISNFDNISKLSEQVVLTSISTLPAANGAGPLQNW
In words: Intracellular calcium measurements (FLIPR), CHO cells, 3 nM orexin-A as agonist. Format: cell-based. The conditions noted are these: geometric mean; antagonism of 3 nM orexin-A. The procedure: Fluorescence is measured for each well at 1 second intervals, and the height of each fluorescence peak is compared to the height of the fluorescence peak induced by 3 nM orexin-A with vehicle in place of antagonist. […] Optimized conditions were achieved by adjustment of pipetting speed and cell splitting regime. The calculated IC50 values may fluctuate depending on the daily cellular assay performance. Fluctuations of this kind are known to those skilled in the art.
On the technique in general: A change in cytosolic calcium serves as a functional read-out for many receptors and channels.

[10] abbreviates: 300 mg/kg po, Wistar rats, 12 h following administration.
[11] abbreviates: brain, read-out: concentration in brain [B].
Setting [12] is: plasma, read-out: concentration in plasma [P].

As a reminder, the IC50 is the concentration that inhibits the measured activity by half. For the molecule `COc1ccc(C[C@H]2c3cc(OC)c(OC)cc3CCN2[C@@H](C(=O)NC(C)C)c2ccccc2)cc1OC` [COMPOUND, (R)-2-[(S)-1-(3,4-dimethoxy-benzyl)-6,7-dimethoxy-3,4-dihydro-1H-isoquinolin-2-yl]-N-isopropyl-2-phenyl-acetamide], in series [1], the IC50 came to 27 nM. Further, in series [2] (setting [10]), the “effect on NREM sleep compared to vehicle controls” value is recorded as -2%, the “effect on REM sleep compared to vehicle controls” value is “+1%”, the “effect on active wake compared to vehicle controls” value is recorded as -4% and the “effect on home cage activity compared to vehicle controls” value is recorded as -3%. In [2] (at relevant dose, summary statement), the “effect in a model relevant to sleep induction” value was “no effect”. Besides, in series [3], the “acquisition of locomotor sensitization to morphine (total distance moved)” value was “significantly reduced”. Further, the concentration at 3 h in series [4] (setting [11]) was determined as 880 ng/g. Moreover, the concentration at 3 h in series [4] (setting [12]) was 1460 ng/mL. Further, in series [4], the “capacity to cross the blood-brain barrier” value is on record as “crossed the blood-brain barrier”. In addition, the “fear-potentiated startle response under light (cue) conditions as compared to vehicle” value in [5] is listed as “significantly reduced”.
As for `CNC(=O)[C@@H](c1ccccc1)N1CCc2cc(OC)c(OC)cc2[C@@H]1CCc1ccc(C(F)(F)F)cc1` [(2R)-2-{(1S)-6,7-dimethoxy-1-[2-(4-trifluoromethyl-phenyl)-ethyl]-3,4-dihydro-1H-isoquinolin-2-yl}-N-methyl-2-phenyl-acetamide], in series [6], the “alertness (active wake and locomotion)” value is “decrease alertness”; the “time spent in both REM and NREM sleep” value was “dose-dependently increase”. Besides, in series [7], the “crossing of the blood-brain barrier” value is reported as “cross the blood-brain barrier” and the systemic bioavailability result is “good”. The “activity in the rat fear potentiated startle paradigm” value in series [8] is reported as “active”.
`CCCCNC(=O)[C@@H](c1ccccc1)N1CCc2cc(OC)c(OC)cc2[C@@H]1Cc1ccc(OC)c(OC)c1` [Reference Compound 1, (R)-2-[(S)-1-(3,4-Dimethoxy-benzyl)-6,7-dimethoxy-3,4-dihydro-1H-isoquinolin-2-yl]-N-butyl-2-phenyl-acetamide, reference compound]: the IC50 is 12 nM in series [1] (geometric mean, antagonism of 3 nM orexin-A, read-out: IC50 value on the orexin-1 receptor) and more than 300 nM in series [9]. Besides, the concentration at 3 h came to 530 ng/g in [4] (setting [11]) and 850 ng/mL in [4] (setting [12]). Also, in series [4], the “capacity to cross the blood-brain barrier” value was “only moderate capacity”. In addition, the “fear-potentiated startle response under light (cue) conditions as compared to vehicle” value in [5] is reported as “no effect”.
